Measurements taken from ChEMBL document CHEMBL1201862, “PubChem BioAssay data set” (2004).
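Dose response: 5 concentrations. Exposure: 48 h. Format: 96-well plates. Endpoint: linear interpolation; highest concentration if not reached. The concentration for 50% growth inhibition is given as GI50.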 The source made the active and inactive calls. No stated cut-off is given here; in the data, active = GI50 up to about 1.1 µM and inactive = higher.

Experiments:
Assay in all cases: DTP human tumour cell line panel, 48 h
A549 = test system: A549
CAKI-1 = test system: CAKI-1
CCRF-CEM = test system: CCRF-CEM
COLO 205 = test system: COLO 205
HL-60 = test system: HL-60
HOP-62 = test system: HOP-62
Hs-578T = test system: Hs-578T
NCI-H23 = test system: NCI-H23
NCI-H522 = test system: NCI-H522
OVCAR-3 = test system: OVCAR-3
OVCAR-4 = test system: OVCAR-4
OVCAR-8 = test system: OVCAR-8
RPMI-8226 = test system: RPMI-8226
SK-MEL-2 = test system: SK-MEL-2
SK-OV-3 = test system: SK-OV-3
SN12C = test system: SN12C
SNB-19 = test system: SNB-19
SW-620 = test system: SW-620
U-251 = test system: U-251
UO-31 = test system: UO-31

Measured: GI50

c1ccc(-c2cn3c(nc4ccccc43)c(-c3ccccc3)n2)cc1
inactive: A549 > 68.7 µM | CAKI-1 > 48.9 µM | CCRF-CEM > 100 µM | COLO 205 > 100 µM | HL-60 > 100 µM | HOP-62 7.13 µM | Hs-578T 16.3 µM | NCI-H23 55.2 µM | NCI-H522 35.2 µM | OVCAR-3 > 100 µM | OVCAR-4 4.56 µM | OVCAR-8 13.3 µM | RPMI-8226 > 100 µM | SK-MEL-2 30.1 µM | SK-OV-3 10.2 µM | SN12C 65.8 µM | SNB-19 16.8 µM | SW-620 > 100 µM | U-251 14.2 µM | UO-31 37.7 µM

CNc1ccc(Cl)cc1S(=O)(=O)c1ccccc1[N+](=O)[O-]
inactive: A549 > 100 µM | CCRF-CEM > 100 µM | COLO 205 > 100 µM | HL-60 > 100 µM | HOP-62 > 100 µM | Hs-578T 31.1 µM | NCI-H23 > 100 µM | NCI-H522 > 100 µM | OVCAR-3 > 100 µM | OVCAR-4 99.3 µM | OVCAR-8 > 100 µM | RPMI-8226 > 100 µM | SK-MEL-2 > 100 µM | SK-OV-3 > 100 µM | SN12C > 100 µM | SNB-19 > 100 µM | SW-620 > 100 µM | U-251 > 100 µM | UO-31 > 100 µM

O=[N+]([O-])c1ccc(/C=N/n2c(S)nnc2CCc2nnc(S)n2/N=C/c2ccc([N+](=O)[O-])o2)o1
inactive: CAKI-1 20.2 µM | CCRF-CEM 20 µM | HL-60 33.6 µM | HOP-62 24 µM | Hs-578T 25.5 µM | NCI-H23 16.7 µM | NCI-H522 22.2 µM | OVCAR-3 24.6 µM | OVCAR-4 19.3 µM | OVCAR-8 31.9 µM | RPMI-8226 29.4 µM | SK-MEL-2 18.5 µM | SK-OV-3 > 100 µM | SW-620 16.7 µM | U-251 20 µM | UO-31 29.3 µM

CCOC(=O)N/N=C/C1=NN(C(=O)OCC)[S+]([O-])C1C (centres undefined)
inactive: A549 > 100 µM | CAKI-1 > 100 µM | CCRF-CEM > 100 µM | COLO 205 > 100 µM | HL-60 > 100 µM | HOP-62 > 100 µM | Hs-578T > 100 µM | NCI-H23 > 100 µM | NCI-H522 > 100 µM | OVCAR-3 > 100 µM | OVCAR-4 > 100 µM | OVCAR-8 > 100 µM | RPMI-8226 > 100 µM | SK-MEL-2 > 100 µM | SK-OV-3 > 100 µM | SN12C > 100 µM | SNB-19 > 100 µM | SW-620 > 100 µM | U-251 > 100 µM | UO-31 > 100 µM

CC(=O)Nc1ccc(NCC(=O)Nn2cnc3ccc(S(=O)(=O)Nc4ccc(NC(C)=O)cc4)cc3c2=O)cc1
inactive: A549 > 100 µM | CAKI-1 > 100 µM | CCRF-CEM > 100 µM | COLO 205 > 100 µM | HL-60 > 100 µM | HOP-62 > 100 µM | Hs-578T > 100 µM | NCI-H23 > 100 µM | NCI-H522 > 100 µM | OVCAR-3 > 100 µM | OVCAR-4 > 100 µM | OVCAR-8 > 100 µM | RPMI-8226 > 100 µM | SK-MEL-2 > 100 µM | SK-OV-3 > 100 µM | SN12C > 100 µM | SNB-19 > 100 µM | SW-620 > 100 µM | U-251 > 100 µM | UO-31 > 100 µM

O=C(O)/C=C\C(=O)Nn1c(Cc2ccc(Cl)cc2)n[nH]c1=O
inactive: A549 > 100 µM | CAKI-1 > 100 µM | CCRF-CEM > 100 µM | COLO 205 > 100 µM | HL-60 > 100 µM | HOP-62 > 100 µM | Hs-578T > 100 µM | NCI-H23 > 100 µM | NCI-H522 > 100 µM | OVCAR-3 > 100 µM | OVCAR-4 > 100 µM | OVCAR-8 > 100 µM | SK-MEL-2 > 100 µM | SK-OV-3 > 100 µM | SN12C > 100 µM | U-251 > 100 µM

CCOC(=O)NC(Nc1cccc(C(F)(F)F)c1)(C(F)(F)F)C(F)(F)F
inactive: A549 > 100 µM | CAKI-1 > 100 µM | CCRF-CEM > 100 µM | COLO 205 > 100 µM | HL-60 > 100 µM | HOP-62 > 100 µM | Hs-578T > 100 µM | NCI-H23 > 100 µM | NCI-H522 > 100 µM | OVCAR-3 > 100 µM | OVCAR-8 > 100 µM | RPMI-8226 > 100 µM | SK-MEL-2 > 100 µM | SK-OV-3 > 100 µM | SN12C > 100 µM | SNB-19 > 100 µM | SW-620 > 100 µM | U-251 > 100 µM | UO-31 93.8 µM

O=C(O)[C@@H]1C2CC([C@@H]1C(=O)O)[C@H](N1C(=O)CCC1=O)[C@@H]2Br (some centres undefined)
inactive: A549 > 100 µM | CCRF-CEM > 100 µM | COLO 205 > 100 µM | HL-60 > 100 µM | HOP-62 > 100 µM | Hs-578T > 100 µM | NCI-H23 > 100 µM | NCI-H522 > 100 µM | OVCAR-3 > 100 µM | OVCAR-4 > 100 µM | OVCAR-8 > 100 µM | RPMI-8226 > 100 µM | SK-MEL-2 > 100 µM | SK-OV-3 > 100 µM | SN12C > 100 µM | SNB-19 > 100 µM | SW-620 > 100 µM | U-251 > 100 µM | UO-31 > 100 µM
